Where a SMILES comes first, the peptide text is derived from it. [ ]: non-standard residue; d: D form. The star is where a group is joined. sY = N[C@@H](Cc1ccc(OS(=O)(=O)O)cc1)C(=O)O; Nle = CCCC[C@H](N)C(=O)O; Orn = NCCC[C@H](N)C(=O)O; Cbz = O=C(OCc1ccccc1)*; Boc = CC(C)(C)OC(=O)*
Key:
[1] = molecular target: Gastrin/cholecystokinin type B receptor (Cavia porcellus); test: Apparent affinity to inhibit binding of [3H]pCCK-8 to Cholecystokinin type B receptor of guinea pig brain membranes
[2] = molecular target: Gastrin/cholecystokinin type B receptor (Cavia porcellus); test: as above; remark: listed apart in the source

Row | Ki [2] | Structure (SMILES) | Ki [1]
1 |  | CC(C)(C)OC(=O)NCCC[C@H](NC(=O)[C@H](Cc1c[nH]c2ccccc12)NC(=O)OC(C)(C)C)C(=O)N[C@@H](CC(=O)O)C(N)=O [3-{5-tert-Butoxycarbonylamino-2-[2-tert-butoxycarbonylamino-3-(1H-indol-3-yl)-propionylamino]-pentanoylamino}-succinamic acid] (Boc-Trp-[Orn](Boc)-Asp-NH2) | 4300 nM
2 | 580 nM | CC(C)(C)OC(=O)N[C@@H](Cc1c[nH]c2ccccc12)C(=O)N[C@@H](CCCNC(=O)OCc1ccccc1)C(=O)N[C@@H](CC(=O)O)C(=O)N[C@@H](Cc1ccccc1)C(N)=O (Boc-W[Orn](Cbz)DF-NH2) | 
3 | 54 nM | CCCC[C@H](NC(=O)[C@H](Cc1ccc(OS(=O)(=O)O)cc1)NC(=O)OC(C)(C)C)C(=O)NCC(=O)N[C@@H](Cc1c[nH]c2ccccc12)C(=O)N[C@@H](CCCNC(=O)OCc1ccccc1)C(=O)N[C@@H](CC(=O)O)C(N)=O (Boc-[sY][Nle]GW[Orn](Cbz)D-NH2) | 
4 | 4200 nM | CC(C)(C)OC(=O)N[C@@H](Cc1c[nH]c2ccccc12)C(=O)N[C@@H](CCCNC(=O)OCc1ccccc1)C(=O)N[C@@H](CC(=O)O)C(N)=O (Boc-Trp-[Orn](Cbz)-Asp-NH2) | 
5 |  | CC(C)(C)OC(=O)N[C@@H](Cc1c[nH]c2ccccc12)C(=O)N[C@@H](CCCN)C(=O)N[C@@H](CC(=O)O)C(=O)N[C@@H](Cc1ccccc1)C(N)=O (Boc-W[Orn]DF-NH2) | 1400 nM

— BindingDB's records for doi:10.1021/jm00174a016 (University of Paris, 1991)
